Results on one molecule are retold here after article PMC5655689, “Therapeutic potential of the phosphino Cu(I) complex (HydroCuP) in the treatment of solid tumors” (Scientific Reports, 2017).

Broadly, the IC50 is the concentration that inhibits the measured activity by half.

In data set [1] the test system is HCT-15 human colon cancer spheroids. The data set is described as follows: 3D spheroid cell viability, acid phosphatase (APH) assay, HCT-15. The format is cell-based. To be noted: HCT-15 spheroids, 72 h. The method, then:
In order to improve the predictive capacity of the in vitro assays, we tested HydroCuP activity in two 3D cell cultures of human colon cancer cells, HCT-15 and LoVo. The colon cancer spheroids were treated with HydroCuP for 72 h and the cell viability was assessed by means of the acid phosphatase (APH) assay (Fig. 1, panel A).
Figure 1 Activity in 3D cell cultures. (A) Spheroids (2.5 × 10^3 cells/well) were treated for 72 h with increasing concentrations of tested compounds. The growth inhibitory effect was evaluated by means of APH test. IC50 values were calculated from the dose-survival curves by four parameter logistic model (P < 0.05). SD = standard deviation.
Spheroids were initiated in liquid overlay by seeding 2.5 × 10^3 HCT-15 and LoVo cells/well in phenol red-free RPMI-1640 medium (Sigma Chemical Co.), containing 10% FCS and supplemented with 20% methyl cellulose stock solution. A total of 150 μl of this cell suspension was transferred to each well of a round bottom non-tissue culture treated 96 well-plate (Greiner Bio-one, Kremsmünster, Austria) to allow spheroid formation within 72 h.
A modified APH assay, which is based on quantification of cytosolic acid phosphatase activity, was used for determining cell viability in spheroids. Briefly, the pre-seeded spheroids were treated with fresh medium containing the compound to be studied at the appropriate concentration (range 5–150 μM). Triplicate cultures were established for each treatment. After 72 h, each well was treated with 100 μL of the assay buffer (0.1 M sodium acetate, 0.1% Triton-X-100, supplemented with ImmunoPure p-nitrophenyl phosphate; Sigma Chemical Co.) and, following 3 h of incubation, 10 μL of 1 M NaOH solution were added. The inhibition of the cell growth induced by the tested complexes was detected by measuring the absorbance of each well at 405 nm, using a Bio-Rad 680 microplate reader. Mean absorbance for each drug dose was expressed as a percentage of the control untreated well absorbance (T/C) and plotted vs drug concentration. IC50 values, the drug concentrations that reduce the mean absorbance at 405 nm 50% of those in the untreated control wells, were calculated by four-parameter logistic (4-PL) model. Evaluation was based on means from at least four independent experiments.

Data set [2] has as its system 2D human cancer cell cultures. Details: method as in PMID 18251492, PMID 21388518. To be noted: cited from earlier work.
Data set [3] deals with p-PERK and p-IRE1 (UPR pathway). The experiment in a line: IHC analysis of p-PERK and p-IRE1 in LLC tumor samples. To be noted: later-stage regimen. The format is in vivo, mouse. The text has this:
In order to investigate the in vivo activation of the UPR induced by HydroCuP, the levels of the phospho-PERK (p-PERK) and phospho-IRE1 (p-IRE1) were detected in tumor samples derived from treated LCC-bearing mice (following later-stage regimen). […] In control samples, p-PERK staining was found moderate in cytoplasm (in about 40% cell population) and intense in perinuclear-ER (about 5% of cell population). […] With regard to the […], p-IRE1, control tumors were weakly positive in cytoplasm (in about 15% cell population).
Figure 6 IHC analysis of p-PERK and p-IRE1 expression in LLC tumor samples. (A) Pictures show representative patterns of p-PERK and p-IRE1 expression by IHC in control LLC tumor samples (a and c) and in HydroCuP-treated tumor samples (b and d); magnification: ×10. (B) p-PERK (a) and p-IRE1 (b) values, evaluated in LLC tumor sections. The quantification of IHC images was performed by using Image J software. Columns indicate quantitative analysis in n = 3 different tumors per group; *P < 0.05.
To evaluate p-PERK and p-IRE1 expression, five-micron-thick formalin-fixed, paraffin-embedded (FFPE) tumor samples of LLC models (3 tumors/group, 3 sections/tumor and 3 images/sections) were stained by IHC using anti-human p-PERK (Thr981, Santa Cruz) or p-IRE1 (Ser724, Abcam) primary antibodies according to the manufacturer’s instructions. IHC was performed using a Leica Bond III Autostainer (Leica). Antigen retrieval was performed in citrate buffer for 15 min. Sections were counter-stained with Mayer’s haematoxylin. IHC results were evaluated by one experienced pathologist with no prior knowledge of experimental data. The quantification of IHC images was performed by using Image J software.

Data set [4] has as its system DRG explants from 15 day-embryonic Sprague-Dawley rats. The data set is described as follows: Neurotoxicity: neurite elongation in DRG explants. Particulars: 48 h, DRG explants with NGF; OXP 5, 7.5, 10 μM; HydroCuP 5, 10, 20 μM.
Protocol: To investigate the potential neurotoxic effect of HydroCuP, we employed a well-established in vitro model based on organotypic cultures of DRG from 15-day-old rat embryos. Neurite elongation under NGF influence was evaluated in DRG explants. […] For comparison purposes, the effect induced by the reference drugs OXP and CDDP was also tested.
OXP and HydroCuP toxicity at 48 h in DRG explants from 15 day-embryonic Sprague-Dawley rats. Representative images of neurite length in maturing DRG explants with different concentrations of OXP and HydroCuP (A). Bar: 500 µm.
DRG from E15 Sprague-Dawley rats (Envigo, San Pietro al Natisone, Italy) were aseptically removed and cultured onto a single layer of rat tail collagen surfaces in 35-mm dishes as previously described[36].
The DRG were incubated in AN2 medium [MEM added with 1.4 mM L-glutamine (Euroclone, Pero, Italy), 10% calf bovine serum (Hyclone, Thermo Scientific, Logan, UT) 50 µg/ml ascorbic acid, 0.6% glucose (Sigma-Aldrich) in the presence of 5 ng/ml nerve growth factor (NGF; Life Technologies, Monza, Italy) in a 5% CO2 humidified incubator at 37 °C.
To evaluate the neurotoxicity of HydroCuP and OXP, the DRG explants were treated for 2 h with NGF and subsequently exposed to each drug at different concentrations for 48 h. OXP was tested at 5, 7.5 and 10 μM while 5, 10 and 20 μM of HydroCuP was used. DRG treated with AN2 medium supplemented with 5 ng/ml NGF alone were used as controls. Phase-contrast micrographs were taken, and the length of the longest neurite in each DRG was measured by Image J (NIH, Bethesda, MD), using a standard calibration grating photographed at the same magnification. A compound is considered neurotoxic when the mean neurite elongation is reduced by 50% or more after drug exposure vs control.

For `F[P-](F)(F)(F)(F)F.OC[P+](CO)(CO)[Cu-3]([P+](CO)(CO)CO)([P+](CO)(CO)CO)[P+](CO)(CO)CO` [HydroCuP, [Cu(thp)4][PF6]], the “IC50 fold lower than CDDP” value in data set [1] was “about 2.5”. The IC50 in data set [1] (APH test, read-out: IC50 (μM) ± SD HCT-15) is 27 ± 4.25 µM. In data set [2], the “Fold more cytotoxic than CDDP” value is “up to 50” and the “Fold more cytotoxic than OXP” value was ≤ 30. Moreover, the “Cytoplasmic p-PERK positivity vs control” value in data set [3] is reported as “no difference in cytoplasmic p-PERK positivity”. In addition, the “Perinuclear-ER p-PERK staining” value in data set [3] (control about 5% of cell population) is given as “about 30%”. Further, the “Cytoplasmic p-IRE1 positivity (cell population)” value in data set [3] (control about 15% cell population) was “about 35%”. In addition, the “Neurotoxic effect (neurite elongation)” value in data set [4] is “no neurotoxic effect even at the highest concentrations”.
